Read-outs that look alike come from different tables or passages of the source.
What was measured:
NCI-H1993 = test: Cell proliferation assay (CellTiter-Glo); assay type: cell-based; conditions: Homo sapiens, NCI-H1993 cells, 72 h
Protocol: (§1) All cells were obtained from the cell bank of the American Type Culture Collection (ATCC) and cultured in the supplier's recommended media supplemented with 10% FBS. The cell panel screen was measured using the CellTiter-Glo assay (Promega, Madison, WI) following a standard protocol. Briefly, cancer cells were seeded in 96-well plates and cultured overnight at 37°C with or without 5% CO2 in an incubator. Each compound was dissolved with limited DMSO and diluted to a certain concentration with culture medium and then added to the corresponding well of the cell plate. The final concentration of compound was 20 μM. The control cells (without treatment) received the same amount of DMSO and were incubated under the same conditions. After 72 h cultivation, 100 μL of the CellTiter-Glo reagent was added directly to each well for 10-minute incubation. The plate was then read on a FlexStation 3 microplate luminometer (Molecular Devices, USA) to monitor the luminescence signal generated by the luciferase-catalyzed reaction of luciferin and ATP. The percent of growth inhibition was calculated using the following formula: (untreated cells − treated cells)/(untreated cells − background without cells) ∗ 100.
(§2) For proliferation assays, the CellTiter-Glo assay (Promega, Madison, WI) was used to evaluate the proliferation of cancer cells treated with test compounds as described above. Each compound was dissolved in limited DMSO and diluted to various concentrations with culture medium and then added to the corresponding wells. A dose-response curve was plotted, and the IC50 was calculated using XLfit software.

NCI-H838 = test: Cell proliferation assay (CellTiter-Glo); assay type: cell-based; conditions: Homo sapiens, NCI-H838 cells, 72 h
Protocol: as §1, §2

NCI-H1975 = test: Cell proliferation assay (CellTiter-Glo); assay type: cell-based; conditions: Homo sapiens, NCI-H1975 cells, 72 h
Protocol: as §1, §2

LnCap = test: Cell proliferation assay (CellTiter-Glo); assay type: cell-based; conditions: Homo sapiens, LnCap cells, 72 h
Protocol: as §1, §2

A549 = test: Cell proliferation assay (CellTiter-Glo); assay type: cell-based; conditions: Homo sapiens, A549 cells, 72 h
Protocol: as §1, §2

SW48 = test: Cell proliferation assay (CellTiter-Glo); assay type: cell-based; conditions: Homo sapiens, SW48 cells, 72 h
Protocol: as §1, §2

SK-MEL-28 = test: Cell proliferation assay (CellTiter-Glo); assay type: cell-based; conditions: Homo sapiens, SK-MEL-28 cells, 72 h
Protocol: as §1, §2

NCI-H1573 = test: Cell proliferation assay (CellTiter-Glo); assay type: cell-based; conditions: Homo sapiens, NCI-H1573 cells, 72 h
Protocol: as §1, §2

SW954 = test: Cell proliferation assay (CellTiter-Glo); assay type: cell-based; conditions: Homo sapiens, SW 954, SW954 cells, 72 h
Protocol: as §1, §2

U118MG = test: Cell proliferation assay (CellTiter-Glo); assay type: cell-based; conditions: Homo sapiens, U-118-MG, U118MG cells, 72 h
Protocol: as §1, §2

SW1353 = test: Cell proliferation assay (CellTiter-Glo); assay type: cell-based; conditions: Homo sapiens, SW1353 cells, 72 h
Protocol: as §1, §2

CHP212 = test: Cell proliferation assay (CellTiter-Glo); assay type: cell-based; conditions: Homo sapiens, CHP-212, CHP212 cells, 72 h
Protocol: as §1, §2

[1] = tested on: PUMA, NOXA, and CDIP mRNA in NCI-H1650 cells; test: Quantitative real-time PCR of proapoptotic genes; assay type: cell-based, human; conditions: 24-hour treatment
Source text: The primers for PUMA (Cat. Hs00248075_m1), CDIP1 (Cat. Hs00924663_g1), and NOXA (Cat. Hs00560402_m1) for quantitative PCR were all purchased from Invitrogen. Dissociation curves and no-cDNA controls were generated for each primer pair to detect nonspecific amplification. A standard curve was generated for each primer pair as well as for glyceraldehyde-3-phosphate dehydrogenase (GAPDH; using in this case a predeveloped TaqMan assay), to which gene expression levels were normalized by a comparative threshold cycle method. Finally, a ratio was calculated comparing normalized gene expression values in treated versus untreated controls for each sample.
Total RNA was extracted from the NCI-H1650 cell line using the RNeasy kit (Qiagen). cDNA synthesis was performed using Superscript II RNase H– reverse transcriptase (Life Technologies, Bethesda, MD, USA) to transcribe 2 μg of total RNA primed with 1 μL of 500 μg/mL random hexamers. For quantitative real-time PCR analysis, an ABI TaqMan assay (HS00378697) was used in an ABI 7300 system with the following profile: 95°C for 10 min, followed by 40 cycles of 15 s at 95°C and 60 s at 60°C. PUMA, NOXA, and CDIP1 mRNA levels were normalized by comparison to GAPDH RNA levels in the same samples. Each measurement was performed at least in duplicate.

NCI-H1650 = test: Cell proliferation assay (CellTiter-Glo); assay type: cell-based, human; conditions: NCI-H1650 cells, 20 μM to 0.009 μM in serial 3-fold dilutions
Protocol: as §1, §2

HuVec = test: Cell proliferation assay (CellTiter-Glo), control cell line; assay type: cell-based; conditions: Homo sapiens, 72 h
Protocol: as §1, §2

NCI-H2347 = test: Cell panel screen (CellTiter-Glo); assay type: cell-based, human; conditions: Homo sapiens, read-out: Percent Inhibition
Procedure, shortened: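 Compound, diluted from DMSO into culture medium, was added at a final 20 μM; control wells got equal DMSO. After 72 h, luminescent ATP signal was recorded and converted to percent inhibition.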

NCI-H1650 cells [2] = test: Soft-agar colony formation assay; assay type: cell-based; conditions: Homo sapiens, 168 h; NCI-H1650 cells in soft agar, one week, Alamar Blue; read-out: IC50, cell colony formation
Protocol: NCI-H1650 cells were plated in soft agar (Takara, Japan) at a density of 4000 cells/well in a 96-well plate. For the base layer, 1.2% agar stock solution was melted in an autoclave, cooled to 40°C in a water bath, and then mixed with RPMI1640 medium to obtain a solution of 0.6% agar in RPMI1640 containing 10% FBS. A cell suspension placed on the top layer was composed of RPMI1640 with 10% FBS and 0.4% agarose in each well. Then, the cells were incubated overnight. Compounds were added into the wells, and the NCI-H1650 cells were incubated for one week. After 7 days, alamar blue was added to the agar plate wells containing NCI-H1650 cell, and the plates were returned to the incubator. The fluorescence intensity (excitation 560 nm, emission 590 nm) was measured after 24 h.

NCI-H1650 cells [3] = test: Apoptosis induction assay (Cell Death Detection ELISA); assay type: cell-based, human; conditions: for effect of Z-VAD cotreatment on compound-induced oligonucleosomal fragmentation: NCI-H1650 cells, Z-VAD 10 μmol/L; for NCI-H1650 cells that underwent rapid apoptosis: after 8 h
Protocol: Apoptosis induction assays were performed after 8 or 24 h incubation with compounds using the Cell Death Detection ELISA assay (Roche). Apoptosis induction is represented relative to DMSO-treated controls (set at 1.0). Error bars denote the SEM.

[4] = NCI-H2347 (Lung), 20 micromolar, 72 hrs

SMILES | IC50 (NCI-H1993) | IC50 (NCI-H838) | IC50 (NCI-H1975) | IC50 (LnCap) | IC50 (A549) | IC50 (SW48) | IC50 (SK-MEL-28) | IC50 (NCI-H1573) | IC50 (SW954) | IC50 (U118MG) | IC50 (SW1353) | IC50 (CHP212) | induction of CIDP mRNA [1] | induction of NOXA mRNA [1] | induction of PUMA mRNA [1] | IC50 (NCI-H1650; Homo sapiens, NCI-H1650, 72 h) | IC50 (HuVec) | inhibition at 20 µM (NCI-H2347; [4]) | IC50 (NCI-H1650 cells [2]) | effect of Z-VAD cotreatment on compound-induced oligonucleosomal fragmentation (NCI-H1650 cells [3]) | other results
CC(C)=CCC/C(C)=C/Cc1c(O)c(CC=C(C)C)c2c(c1O)C(=O)C1=C[C@@H]3C[C@H]4C(C)(C)O[C@@](C/C=C(\C)C=O)(C3=O)[C@@]14O2 [GB49] | 2550 ± 140 nM | 2720 ± 150 nM | 1690 ± 150 nM | 1910 ± 60 nM | 3460 ± 200 nM | 2970 ± 60 nM | 1510 ± 120 nM | 7890 ± 140 nM | 1880 ± 100 nM | 1220 ± 50 nM | 1290 ± 50 nM | 1430 ± 30 nM | no effect | no effect | no effect | 970 ± 40 nM | 1470 ± 70 nM | 98% | 3920 ± 130 nM | – | –
CC(C)=CCC[C@@]1(C)C=Cc2c(O)c3c(c(C/C=C(\C)CO)c2O1)O[C@]12C(=C[C@@H]4C[C@H]1C(C)(C)O[C@@]2(C/C=C(/C)C(=O)O)C4=O)C3=O [GB40, 35-hydroxyepigambogic acid] | 1290 ± 50 nM | 1680 ± 190 nM | 960 ± 50 nM | 790 ± 120 nM | 2450 ± 60 nM | 1470 ± 100 nM | 730 ± 210 nM | 5990 ± 190 nM | 1020 ± 100 nM | 1030 ± 150 nM | 830 ± 50 nM | 1180 ± 50 nM | 2 fold | greater than 5 fold | 2 fold | < 1000 nM | 680 ± 10 nM | 98% | 1070 ± 40 nM | completely suppressed | IC50 (NCI-H1650; 72 hr): 620 ± 30 nM; NCI-H1650 cells that underwent rapid apoptosis (NCI-H1650 cells [3]): > 90%
CC(C)=CCC/C(C)=C/Cc1c(O)c(CC=C(C)C)c2c(c1O)C(=O)C1=C[C@@H]3C[C@H]4C(C)(C)O[C@@](CC=C(C)C)(C3=O)[C@@]14O2 [GB32] | 2470 ± 110 nM | 3150 ± 40 nM | 1580 ± 120 nM | 1800 ± 140 nM | 2880 ± 60 nM | 3840 ± 90 nM | 1510 ± 70 nM | 4360 ± 150 nM | 2430 ± 170 nM | 1190 ± 70 nM | 1410 ± 50 nM | 1450 ± 80 nM | no effect | no effect | no effect | – | 1630 ± 60 nM | – | 3130 ± 300 nM | completely suppressed | IC50 (NCI-H1650; Homo sapiens, 72 hr): 1090 ± 150 nM; apoptosis induction (oligonucleosomal fragmentation) (NCI-H1650 cells [3]; after 24 h): significant apoptosis; inhibition at 20 µM (NCI-H2347; NCI-H2347, 72 h): 98%
CC(C)=CCC[C@@]1(C)C=Cc2c(O)c3c(c(CCC(C)(C)O)c2O1)O[C@]12C(=C[C@@H]4C[C@H]1C(C)(C)O[C@@]2(C/C=C(/C)C(=O)O)C4=O)C3=O [GB39, 33-hydroxyepigambogic acid] | 1030 ± 130 nM | 1500 ± 70 nM | 1250 ± 140 nM | 840 ± 80 nM | 3040 ± 100 nM | 1440 ± 60 nM | 820 ± 110 nM | 6080 ± 210 nM | 940 ± 40 nM | 1150 ± 90 nM | 760 ± 30 nM | 1200 ± 80 nM | 3 fold | greater than 5 fold | 3 fold | < 1000 nM | 890 ± 90 nM | 99% | 1260 ± 10 nM | completely suppressed | IC50 (NCI-H1650; 72 hr): 950 ± 30 nM; NCI-H1650 cells that underwent rapid apoptosis (NCI-H1650 cells [3]): > 90%
CC(C)=CCC/C(C)=C/Cc1c(O)c(CC=C(C)C)c2c(c1O)C(=O)C1=C[C@@H]3C[C@H]4C(C)(C)O[C@@](C/C=C(\C)C(=O)O)(C3=O)[C@@]14O2 [GB63] | 2150 ± 100 nM | 2650 ± 200 nM | 1710 ± 220 nM | 2170 ± 210 nM | 3770 ± 60 nM | 4020 ± 150 nM | 1750 ± 160 nM | 7920 ± 290 nM | 2580 ± 160 nM | 3050 ± 100 nM | 2480 ± 110 nM | 3510 ± 80 nM | no effect | no effect | no effect | 1430 ± 90 nM | 1900 ± 30 nM | 98% | 2660 ± 150 nM | – | –

— PMC4450297, “Screening Active Compounds from Garcinia Species Native to China Reveals Novel Compounds Targeting the STAT/JAK Signaling Pathway” (BioMed Research International, 2015)
